Earlier results as cited in article PMC9227077, “Prediction Models for Brain Distribution of Drugs Based on Biomimetic Chromatographic Data” (Molecules, 2022).
Like-named read-outs stand apart in the source and are kept apart here.

Experiments:
[1] = design: method as in ref 23, 24, 27, 29, 45 (a number printed in a supplementary file, which may have a reference list of its own: not looked up in the article's list); details: 100% aqueous mobile phase, previously obtained in authors' laboratory, cited from earlier work
[2] = experimental, cited from earlier work; for logP: octanol-water partition coefficient
[3] = cited from earlier work
human serum albumin = system: human serum albumin; design: method as in ref 45 (a number printed in a supplementary file, which may have a reference list of its own: not looked up in the article's list); details: cited from earlier work
α1 acid glycoprotein = system: α1 acid glycoprotein; design: method as in ref 23, 24, 27, 29, 45 (a number printed in a supplementary file, which may have a reference list of its own: not looked up in the article's list); details: pH=7.4, 100% aqueous mobile phase; previously obtained in authors' laboratory; cited from earlier work
[4] = most values in rats, average if more than one value; cited from earlier work
[5] = literature Kp,brain converted to logBB
[6] = total brain/total plasma, preferably rat studies
[7] = pH=7.4, isocratic, 10% acetonitrile, available for 37 compounds, remaining calculated by equation

## CC(=O)Oc1ccccc1C(=O)O [Acetylsalicylic acid]
[1]; pH=5.0, PBS
  logkw IAM: -0.48
[1]; pH=7.4, PBS
  logkw IAM: -0.81
[2]; pH=5.0, octanol-water
  logD: -0.29
[2]; pH=7.4, octanol-water
  logD: -1.20
[3]; [5]
  logBB exper.: -0.5
[3]; [6]
  Kp,brain: 0.32
Human serum albumin; [7]
  logk10,HSA: 0.38

## Nc1nc2c(ncn2COCCO)c(=O)[nH]1 [Acyclovir]
[1]; pH=5.0, PBS
  logkw IAM: -1.37
[1]; pH=7.4, PBS
  logkw IAM: -1.15
[2]
  logP: -1.56
[2]; pH=5.0, octanol-water
  logD: -1.56
[2]; pH=7.4, octanol-water
  logD: -1.56

## Cc1c(N(C)C)c(=O)n(-c2ccccc2)n1C [Aminopyrine]
[3]; [5]
  logBB exper.: 0.00
[3]; [6]
  Kp,brain: 1.00
Human serum albumin; [7]
  logk10,HSA: -0.30

## CC(C)NCC(O)COc1ccc(CC(N)=O)cc1 (centres unmarked) [Atenolol]
[1]; pH=5.0, PBS
  logkw IAM: -0.20
[1]; pH=7.4, PBS
  logkw IAM: 0.51

## CN1[C@@H]2CC[C@H]1C[C@@H](OC(=O)C(CO)c1ccccc1)C2 (some centres unmarked) [Atropine]
[1]; pH=7.4, PBS
  logkw IAM: 1.05

## CCOc1nc2cccc(C(=O)O)c2n1Cc1ccc(-c2ccccc2-c2nnn[nH]2)cc1 [Candesartan]
[1]; pH=5.0, PBS
  logkw IAM: 1.57
[1]; pH=7.4, PBS
  logkw IAM: 1.00
[2]
  logP: 3.36
[2]; pH=5.0, octanol-water
  logD: 1.00
[2]; pH=7.4, octanol-water
  logD: -1.35
[3]; [5]
  logBB exper.: -1.4
[3]; [6]
  Kp,brain: 0.04
α1 acid glycoprotein
  logkwAGP: 0.09
Human serum albumin; [7]
  logk10,HSA: 0.42

## CN(C)CCCN1c2ccccc2Sc2ccc(Cl)cc21 [Chlorpromazine]
[4]
  fu,brain: 0.003
α1 acid glycoprotein
  logkwAGP: 2.30
Human serum albumin; [7]
  logk10,HSA: 1.34

## CN(C)CCCN1c2ccccc2CCc2ccc(Cl)cc21 [Clomipramine]
[1]; pH=5.0, PBS
  logkw IAM: 2.49
[1]; pH=7.4, PBS
  logkw IAM: 3.29
[2]
  logP: 5.46
[2]; pH=5.0, octanol-water
  logD: 2.19
[2]; pH=7.4, octanol-water
  logD: 3.30
[3]; [5]
  logBB exper.: 1.34
[3]; [6]
  Kp,brain: 21.88
[4]
  fu,brain: 0.004
α1 acid glycoprotein
  logkwAGP: 2.70

## CN1C(=O)CN=C(c2ccccc2)c2cc(Cl)ccc21 [Diazepam]
[1]; pH=5.0, PBS
  logkw IAM: 2.12
[1]; pH=7.4, PBS
  logkw IAM: 2.12

## CN(C)CCC=C1c2ccccc2COc2ccccc21 [Doxepin]
[1]; pH=5.0, PBS
  logkw IAM: 1.98
[1]; pH=7.4, PBS
  logkw IAM: 2.50
[2]
  logP: 3.96
[2]; pH=5.0, octanol-water
  logD: 0.86
[2]; pH=7.4, octanol-water
  logD: 2.22
α1 acid glycoprotein
  logkwAGP: 2.30
Human serum albumin; [7]
  logk10,HSA: 0.56

## CN1C(=O)CN=C(c2ccccc2F)c2cc([N+](=O)[O-])ccc21 [Flunitrazepam]
[1]; pH=7.4, PBS
  logkw IAM: 1.79
α1 acid glycoprotein
  logkwAGP: 1.44
Human serum albumin
  logk10,HSA: 0.26

## CNCCC(Oc1ccc(C(F)(F)F)cc1)c1ccccc1 (centres unmarked) [Fluoxetine]
[1]; pH=5.0, PBS
  logkw IAM: 2.46
[1]; pH=7.4, PBS
  logkw IAM: 2.98
[2]
  logP: 4.26
[3]; [5]
  logBB exper.: 0.72
[3]; [6]
  Kp,brain: 5.25
α1 acid glycoprotein
  logkwAGP: 2.10

## O=C(CCCN1CCC(O)(c2ccc(Cl)cc2)CC1)c1ccc(F)cc1 [Haloperidol]
[1]; pH=5.0, PBS
  logkw IAM: 1.86
[1]; pH=7.4, PBS
  logkw IAM: 2.65
[4]
  fu,brain: 0.008
Human serum albumin; [7]
  logk10,HSA: 0.77

## OCCOCCN1CCN(C(c2ccccc2)c2ccc(Cl)cc2)CC1 (centres unmarked) [Hydroxyzine]
[1]; pH=5.0, PBS
  logkw IAM: 2.23
[1]; pH=7.4, PBS
  logkw IAM: 3.01
[2]; pH=5.0, octanol-water
  logD: 0.73
[2]; pH=7.4, octanol-water
  logD: 3.01
[3]; [5]
  logBB exper.: 0.39
[3]; [6]
  Kp,brain: 2.45
[4]
  fu,brain: 0.013
Human serum albumin; [7]
  logk10,HSA: 0.60

## CN(C)CCCN1c2ccccc2CCc2ccccc21 [Imipramine]
[1]; pH=5.0, PBS
  logkw IAM: 2.05
[1]; pH=7.4, PBS
  logkw IAM: 2.73
[3]; [5]
  logBB exper.: 0.83
[3]; [6]
  Kp,brain: 6.76
[4]
  fu,brain: 0.035

## O=C1Nc2ccc(Cl)cc2C(c2ccccc2Cl)=NC1O (centres unmarked) [Lorazepam]
[1]; pH=5.0, PBS
  logkw IAM: 2.01
[1]; pH=7.4, PBS
  logkw IAM: 2.03
[3]; [5]
  logBB exper.: 0.47
[3]; [6]
  Kp,brain: 2.95
α1 acid glycoprotein
  logkwAGP: 1.33
Human serum albumin; [7]
  logk10,HSA: 0.67

## CNCCCC12CCC(c3ccccc31)c1ccccc12 [Maprotiline]
[1]; pH=5.0, PBS
  logkw IAM: 2.25
[1]; pH=7.4, PBS
  logkw IAM: 2.81
[2]
  logP: 4.14
[2]; pH=5.0, octanol-water
  logD: 1.19
[2]; pH=7.4, octanol-water
  logD: 1.44
[3]; [5]
  logBB exper.: 1.76
[3]; [6]
  Kp,brain: 57.54
[4]
  fu,brain: 0.006
Human serum albumin; [7]
  logk10,HSA: 0.80

## CN1CC[C@]23c4c5ccc(O)c4O[C@H]2[C@@H](O)C=C[C@H]3[C@H]1C5 [Morphine]
[1]; pH=5.0, PBS
  logkw IAM: 0.10
[1]; pH=7.4, PBS
  logkw IAM: 0.63

## COc1ccc2cc([C@H](C)C(=O)O)ccc2c1 [Naproxen]
[1]; pH=5.0, PBS
  logkw IAM: 1.71
[1]; pH=7.4, PBS
  logkw IAM: 0.98

## CNCCC=C1c2ccccc2CCc2ccccc21 [Nortriptyline]
[1]; pH=5.0, PBS
  logkw IAM: 2.12
[1]; pH=7.4, PBS
  logkw IAM: 2.83
[2]
  logP: 4.04
[2]; pH=5.0, octanol-water
  logD: 1.16
[2]; pH=7.4, octanol-water
  logD: 1.70
[4]
  fu,brain: 0.006
α1 acid glycoprotein
  logkwAGP: 2.30
Human serum albumin; [7]
  logk10,HSA: 0.82

## CC(C)=CCN1CCC2(C)c3cc(O)ccc3CC1C2C (centres unmarked) [Pentazocine]
[1]; pH=5.0, PBS
  logkw IAM: 1.70
[1]; pH=7.4, PBS
  logkw IAM: 2.06
[2]
  logP: 4.64
[2]; pH=5.0, octanol-water
  logD: 1.24
[2]; pH=7.4, octanol-water
  logD: 4.02
[3]; [5]
  logBB exper.: 0.545
[3]; [6]
  Kp,brain: 3.51
Human serum albumin; [7]
  logk10,HSA: 1.09

## CCCC(C)C1(CC)C(=O)NC(=O)NC1=O (centres unmarked) [Pentobarbital]
[1]; pH=5.0, PBS
  logkw IAM: 1.40
[1]; pH=7.4, PBS
  logkw IAM: 1.29
[2]
  logP: 2.07
[2]; pH=5.0, octanol-water
  logD: 1.88
[2]; pH=7.4, octanol-water
  logD: 1.95
[3]; rat, in vivo
  Kp,brain: 1.32
  logBB exper.: 0.12
α1 acid glycoprotein
  logkwAGP: 1.35
Human serum albumin; [7]
  logk10,HSA: -0.04

## OCCN1CCN(CCCN2c3ccccc3Sc3ccc(Cl)cc32)CC1 [Perphenazine]
[1]; pH=7.4, PBS
  logkw IAM: 3.67
[2]
  logP: 4.20
[2]; pH=5.0, octanol-water
  logD: 1.61
[2]; pH=7.4, octanol-water
  logD: 3.65
[4]
  fu,brain: 0.004
α1 acid glycoprotein
  logkwAGP: 3.19
Human serum albumin; [7]
  logk10,HSA: 1.24

## CCC1(c2ccccc2)C(=O)NC(=O)NC1=O [Phenobarbital]
[1]; pH=5.0, PBS
  logkw IAM: 0.71
[1]; pH=7.4, PBS
  logkw IAM: 0.28
[2]; pH=5.0, octanol-water
  logD: 1.47
[2]; pH=7.4, octanol-water
  logD: 1.14
[3]; rat, in vivo
  Kp,brain: 0.72
  logBB exper.: -0.14
α1 acid glycoprotein
  logkwAGP: 1.10
Human serum albumin; [7]
  logk10,HSA: -0.22

## CC(C)NCC(O)COc1cccc2[nH]ccc12 (centres unmarked) [Pindolol]
[2]; pH=5.0, octanol-water
  logD: -1.15
[2]; pH=7.4, octanol-water
  logD: -0.21
[3]; [5]
  logBB exper.: -0.14
[3]; [6]
  Kp,brain: 0.72
[4]
  fu,brain: 0.400
Human serum albumin; [7]
  logk10,HSA: -0.03

## NC(=O)CN1CCCC1=O [Piracetam]
[2]; pH=5.0, octanol-water
  logD: -1.54
[2]; pH=7.4, octanol-water
  logD: -1.54
[3]; [6]
  Kp,brain: 1.00
Human serum albumin; [7]
  logk10,HSA: -1.32

## CC(=O)[C@H]1CC[C@H]2[C@@H]3CCC4=CC(=O)CC[C@]4(C)[C@H]3CC[C@]12C [Progesterone]
[1]; pH=7.4, PBS
  logkw IAM: 3.06
[2]; pH=5.0, octanol-water
  logD: 3.89
[2]; pH=7.4, octanol-water
  logD: 3.48
[4]
  fu,brain: 0.046
Human serum albumin; [7]
  logk10,HSA: 0.84

## CC(CN1c2ccccc2Sc2ccccc21)N(C)C (centres unmarked) [Promethazine]
[1]; pH=5.0, PBS
  logkw IAM: 2.18
[1]; pH=7.4, PBS
  logkw IAM: 2.78
[2]; pH=5.0, octanol-water
  logD: 1.59
[2]; pH=7.4, octanol-water
  logD: 2.79
[3]; [5]
  logBB exper.: 0.824
[3]; [6]
  Kp,brain: 6.67
α1 acid glycoprotein
  logkwAGP: 2.50
Human serum albumin; [7]
  logk10,HSA: 1.05

## CN1[C@@H]2C[C@@H](OC(=O)[C@H](CO)c3ccccc3)C[C@H]1[C@@H]1O[C@@H]12 [Scopolamine]
[1]; pH=5.0, PBS
  logkw IAM: 0.73
[1]; pH=7.4, PBS
  logkw IAM: 1.15

## CN1C(=O)C(O)N=C(c2ccccc2)c2cc(Cl)ccc21 (centres unmarked) [Temazapam]
[1]; pH=5.0, PBS
  logkw IAM: 1.76
[1]; pH=7.4, PBS
  logkw IAM: 1.76
Human serum albumin; [7]
  logk10,HSA: 0.28

## Cn1c(=O)c2[nH]cnc2n(C)c1=O [Theophylline]
[1]; pH=5.0, PBS
  logkw IAM: -0.26
[1]; pH=7.4, PBS
  logkw IAM: -0.08

## O=c1n(CCCN2CCN(c3cccc(Cl)c3)CC2)nc2ccccn12 [Trazodone]
[2]; pH=5.0, octanol-water
  logD: 2.89
[2]; pH=7.4, octanol-water
  logD: 3.70
[4]
  fu,brain: 0.071
α1 acid glycoprotein
  logkwAGP: 2.36
